Experimental data published in patent publication US11524012B1, “Quinolone analogs and their salts, compositions, and method for their use” (Senhwa Biosciences, Inc., priority 2018, dated 2022).

Assay: Stability study of lyophilized Compound I with mannitol (Method A / Method B samples)
Type: physicochemical
Conditions: Method B sample
Protocol: […] Each 30 mL Type I, clear glass sample vial with 20 mm Freeze Dry Stoppers (Flurotech™ coated) contained 150 mg of Compound I.
At each time point, a vial was removed from the stored condition and reconstituted with 10 mL of D5W and analyzed by HPLC method as discussed in Example 5 at 1 month, 2 months, 3 months, and/or 6 months. In Tables 18-18e, RRT matches the Compounds as shown below.
Sample Preparation—Method A: 10% Mannitol solution was prepared by weighing 200 g±1.0 g of mannitol into glass beaker, adding approximately 1500 mL of WFI (water for injection) to the beaker and stirring until mannitol was dissolved. The mannitol solution was transferred to a 2 L volumetric flask and made to volume with WFI, then poured back to the original beaker to sir and mix further. 1M HCl solution was prepared by adding 16.4 mL of HCl (37%) to a 200 mL volumetric flask containing approximately 100 mL of WFI, adding WFI to make 200 mL in volume, and inverting to mix the prepared solution.
To a tared 2 L Schott bottle containing a magnetic stirrer and wrapped in aluminum foil, 1020 g±1.0 g of the 10% mannitol solution was added. Then, 58.4 g±0.05 g of the 1M HCl solution was added to the 2 L Schott bottle and stirred for approximately 10 minutes. The solution prepared in the 2 L Schott bottle was purged with nitrogen which was continued throughout the manufacturing process. 30.22 g of Compound I (free base) was weighed then added to the 2 L Schott bottle containing 10% mannitol solution and 1 M HCl solution with continual magnetic stirring. The container used to weigh Compound I was rinsed with 3×10 mL of WFI and added to the Schott bottle. After Compound I dissolved (approximately 40 minutes), additional 650 g of WFI was added to the Schott bottle and the solution was stirred for approximately 10 minutes. The pH of the Compound I solution (in Schott bottle) was measured then adjusted to pH 4.5±0.1 using 1 M HCl solution. After each addition of 1 M HCl solution, the solution was stirred for several minutes prior to verifying the pH. Once the pH was adjusted, nitrogen purging was stopped. The pH adjusted Compound I solution was further diluted with WFI to a target weight of 2040 g±1.0 g and stirred.
The final solution (pH adjusted and diluted) was filtered (chain including PVD Fmembrane filter 0.45 μm and 0.22 μm; peristaltic filtration pump by Watson Marlow) in the Bigneat and the bottle containing the filtered solution was sealed. The filtered solution was pumped (Watson Marlow Flexicon PF6-B pump; 100 RPM) into 30 mL Schott Clear Glass vials (10.0 mL filtered solution each). The glass vials were partially stoppered with 20 mm Freeze Dry Stopper Flurotec (Daikyo Seiko) one vial at a time with sterilized utensils inside a fume hood (Envair B101+1.5R) and placed on freeze dryer trays. The freeze dryer trays were transferred into freeze dry chamber and vial probe was positioned (Lyostar II; FTS Kinetics). Lyophilization was performed using the lyophilization cycle listed below. After lyophilization cycle finished, the vials were back filled with N2 and the stopper was placed in situ, wiped down with isopropanol in the fume hood once removed from the freeze dryer, reconciled, then crimped. Seven vials out of 186 sample vials placed under the lyophilization cycle had smashed in the freeze dryer.
Sample Preparation—Method B (dissolved oxygen content ≤1 ppm): 2 L WFI was poured into a Schott bottled and degassed for 30 minutes with N2 until dissolved oxygen content was ≤1 ppm (dissolved oxygen meter and probe; Mettler Toledo). 10% Mannitol solution was prepared by adding […] of mannitol and 1000 mL of degassed WFI to a tared 2 L Schott bottle containing a magnetic stirrer and wrapped in aluminum foil. To the Schott bottle containing mannitol, 15 mL of 2M HCl was added and stirred for approximately 10 minutes. The resulting solution was sparged with N2 while stirring until dissolved oxygen content was ≤1 ppm (approx. 30 min). […]

[1] = −20° C., time not printed (2nd block, col 1)
[2] = −20° C., time not printed (2nd block, col 2)
[3] = −20° C., time not printed (2nd block, col 3)
[4] = −20° C., time not printed (2nd block, col 4)

Cc1cnc(CNC(=O)c2c(=O)c3ccc(N4CCCN(C)CC4)nc3n3c2sc2ccccc23)cn1 [Compound I, 2-(4-Methyl-[1,4]diazepan-1-yl)-5-oxo-5H-7-thia-1,11b-diaza-benzo[c]fluorene-6-carboxylic acid (5-methyl-pyrazin-2-ylmethyl)-amide]
Related Substances RRT 0.88 (25° C./60% RH, 24 months): 0.05%
Related Substances RRT 1.05 (25° C./60% RH, 24 months): 0.16%
Related Substances RRT 1.06 (25° C./60% RH, 24 months): 0.17%
Related Substances Total (25° C./60% RH, 24 months): Total: 0.4%
Water Content USP<921 Method 1c> (25° C./60% RH, 24 months): 1.33%
pH (USP<791>) (25° C./60% RH, 24 months): 4.4
Appearance (25° C./60% RH, Initial): White
Appearance (Reconstituted Solution) (25° C./60% RH, Initial): Clear, colorless
Compound I by HPLC assay (25° C./60% RH, Initial): 100.2%
Related Substances RRT 0.96 (25° C./60% RH, Initial): 0.05%
Related Substances RRT 1.04 (25° C./60% RH, Initial): 0.05%
Related Substances RRT 1.06 (25° C./60% RH, Initial): 0.17%
Related Substances RRT 1.08 (25° C./60% RH, Initial): 0.06%
Related Substances Total (25° C./60% RH, Initial): Total: 0.3%
Water Content USP<921 Method 1c> (25° C./60% RH, Initial): 1.12%
pH (USP<791>) (25° C./60% RH, Initial): 4.6
Appearance (−20° C., 1 month): White powder
Appearance (Reconstituted Solution) (−20° C., 1 month): Clear, colorless
Compound I by HPLC assay (−20° C., 1 month): 100.9%
Reconstitution Time (−20° C., 1 month): 65 s
Related Substances RRT 1.06 (−20° C., 1 month): RRT 1.06: 0.16%
Related Substances RRT 1.08 (−20° C., 1 month): RRT 1.08: 0.06%
Related Substances Total (−20° C., 1 month): Total: 0.2%
Water Content USP<921 Method 1c> (−20° C., 1 month): 1.13%
pH (USP<791>) (−20° C., 1 month): 4.4
Appearance (−20° C., 3 months): Off-white powder
Appearance (Reconstituted Solution) (−20° C., 3 months): Clear, colorless
Compound I by HPLC assay (−20° C., 3 months): 99.5%
Related Substances RRT 1.04 (−20° C., 3 months): RRT 1.04: 0.08%
Related Substances RRT 1.05 (−20° C., 3 months): RRT 1.05: 0.18%
Related Substances Total (−20° C., 3 months): Total: 0.3%
Water Content USP<921 Method 1c> (−20° C., 3 months): 1.33%
pH (USP<791>) (−20° C., 3 months): 4.4
Appearance (−20° C., 6 months): Off-white powder
Appearance (Reconstituted Solution) (−20° C., 6 months): Clear, colorless
Compound I by HPLC assay (−20° C., 6 months): 99.7%
Related Substances RRT 1.05 (−20° C., 6 months): RRT 1.05: 0.13%
Related Substances Total (−20° C., 6 months): Total: 0.1%
Water Content USP<921 Method 1c> (−20° C., 6 months): 1.24%
pH (USP<791>) (−20° C., 6 months): 4.5
Appearance (−20° C., Initial): White powder
Appearance (Reconstituted Solution) (−20° C., Initial): Clear, colorless
Compound I by HPLC assay (−20° C., Initial): 100.2%
Related Substances RRT 0.96 (−20° C., Initial): RRT 0.96: 0.05%
Related Substances RRT 1.04 (−20° C., Initial): RRT 1.04: 0.05%
Related Substances RRT 1.06 (−20° C., Initial): RRT 1.06: 0.17%
Related Substances RRT 1.08 (−20° C., Initial): RRT 1.08: 0.06%
Related Substances Total (−20° C., Initial): Total:0.3%
Water Content USP<921 Method 1c> (−20° C., Initial): 1.12%
pH (USP<791>) (−20° C., Initial): 4.6
Appearance [1]: Off-white powder
Appearance (Reconstituted Solution) [1]: Clear, colorless
Compound I by HPLC assay [1]: 100.8%
Related Substances RRT 1.05 [1]: RRT 1.05: 0.13%
Related Substances Total [1]: Total: 0.1%
Water Content USP<921 Method 1c> [1]: 1.30%
pH (USP<791>) [1]: 4.6
Appearance [2]: Off-white powder
Appearance (Reconstituted Solution) [2]: Clear, colorless
Compound I by HPLC assay [2]: 101.9%
Related Substances RRT 1.05 [2]: RRT 1.05: 0.13%
Related Substances Total [2]: Total: 0.1%
Water Content USP<921 Method 1c> [2]: 1.29%
pH (USP<791>) [2]: 4.5
Appearance [3]: Off-white powder
Appearance (Reconstituted Solution) [3]: Clear, colorless
Compound I by HPLC assay [3]: 101.3%
Related Substances RRT 1.05 [3]: RRT 1.05: 0.12%
Related Substances Total [3]: Total: 0.1%
Water Content USP<921 Method 1c> [3]: 1.10%
pH (USP<791>) [3]: 4.5
Appearance [4]: Off-white powder
Appearance (Reconstituted Solution) [4]: Clear, colorless
Compound I by HPLC assay [4]: 98.1%
Related Substances RRT 1.05 [4]: RRT 1.05: 0.10%
Related Substances Total [4]: Total: 0.1%
Water Content USP<921 Method 1c> [4]: 1.10%
pH (USP<791>) [4]: 4.4
